For data set [1] the following is noted: 25 mg/kg/day IP; PLM6 death at 5 days of treatment. From the text:
(§1) Prostates were removed from 3 day and 5 day treatment groups, sectioned and stained by H&E and TUNEL.

A further data set concerns prostate tissues. Briefly: Prostate apoptosis by TUNEL after short-term IP treatment (PLM6, bicalutamide). Type of data set: in vivo, Male C57BI/6 mice. Particulars: 25 mg/kg/day IP, mean ± SE. The method, then:
FIG. 6. […] Single 20× magnification fields from each of four lobes of mouse prostate glands were counted in each mouse. […] Data are expressed as means±SE. Statistics were determined using two-tailed, paired t-tests assuming data from each lobe was independent.
as §1
PLM6-induced glandular apoptosis was 19.9±2.8 cells per 20× field on day 3 (P=0.0064) that reached 24.63±3 cells per 20× field on day 5 (P=2.59×10^−4) (FIG. 7). Prostates from treated and control mice were isolated, fixed sectioned and stained TUNEL (BrdU). Sections were then evaluated by visible light microscopy and counting.

For data set [2], the target named is T1, AR wt (Homo sapiens, UniProt P10275).
T1 sequence (P10275 1-920): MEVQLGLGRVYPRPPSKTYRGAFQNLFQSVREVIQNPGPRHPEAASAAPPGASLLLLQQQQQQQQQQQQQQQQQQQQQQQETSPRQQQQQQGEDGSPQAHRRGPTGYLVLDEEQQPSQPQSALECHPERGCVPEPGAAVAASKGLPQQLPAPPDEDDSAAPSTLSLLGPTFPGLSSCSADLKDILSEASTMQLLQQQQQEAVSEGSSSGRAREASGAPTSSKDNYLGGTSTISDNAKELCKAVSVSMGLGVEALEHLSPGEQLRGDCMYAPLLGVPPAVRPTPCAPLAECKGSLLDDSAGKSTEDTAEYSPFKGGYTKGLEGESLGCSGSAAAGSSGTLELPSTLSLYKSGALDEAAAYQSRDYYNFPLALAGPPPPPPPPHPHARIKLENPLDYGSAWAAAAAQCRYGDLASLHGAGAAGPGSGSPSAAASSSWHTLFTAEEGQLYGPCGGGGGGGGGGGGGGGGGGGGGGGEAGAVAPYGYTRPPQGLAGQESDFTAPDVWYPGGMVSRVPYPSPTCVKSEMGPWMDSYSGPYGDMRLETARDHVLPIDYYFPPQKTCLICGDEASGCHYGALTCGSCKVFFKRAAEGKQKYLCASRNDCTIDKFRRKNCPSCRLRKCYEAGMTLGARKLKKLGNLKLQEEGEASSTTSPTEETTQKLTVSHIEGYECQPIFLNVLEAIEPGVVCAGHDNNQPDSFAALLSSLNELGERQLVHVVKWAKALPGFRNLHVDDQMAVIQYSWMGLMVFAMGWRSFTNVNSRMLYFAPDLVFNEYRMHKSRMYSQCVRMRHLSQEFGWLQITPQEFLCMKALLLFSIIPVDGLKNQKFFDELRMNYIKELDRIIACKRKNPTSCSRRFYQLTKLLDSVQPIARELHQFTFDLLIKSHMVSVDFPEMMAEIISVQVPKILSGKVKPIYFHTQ
Briefly: Transcription assay (ARE-luciferase reporter) in CV-1 cells, wild-type AR. It is filed as cell-based. Set-up: expressed in transfected cells; host or cells: CV-1. The method, then:
(§2) Twenty-four hours prior to transfection, CV-1 cells were seeded at a density of 45,000 cells per well in 24-well cell culture plates and grown in phenol red free Dulbecco's Modified Eagle Medium (DMEM) supplemented with 10% cosmic calf serum (COS). ARE-luciferase reporter and Renilla-Luc as the internal standard and a prokaryotic expression vector encoding the wild-type androgen receptor or mutant androgen receptor were transfected with Lipofectamine (Invitrogen) following manufacturer's protocol. Five hours after transfection, media was added containing the appropriate concentrations of ligands. The cells were allowed to incubate for 38 hours before harvesting by passive lysis buffer. Cell extracts were immediately assayed using the Dual Luciferase Assay (Promega) with a Perkin-Elmer Microbeta Luminometer. […] Dose-response data was analyzed by nonlinear regression analysis using GraphPad Prism.
On the technique in general: In a reporter assay the amount or activity of a reporter protein is the signal.

Another data set deals with T2, AR W741C (Homo sapiens, UniProt P10275, W742C).
T2 sequence (P10275 1-920 W742C): T1 sequence (P10275 1-920) with W742C
Briefly: Competitive binding assay, [3H]DHT, transfected COS-7 cells, AR W741C. Further details: expressed in transfected cells; host or cells: COS-7. Particulars: 75 nM [3H]-DHT, read-out: Binding affinity (Ki), AR W741C. The method, then: (§3) Twenty-four hours prior to transfection, COS-7 cells were seeded at a density of 70,000 cells per well in 24-well cell culture plates and grown in phenol red free Dulbecco's Modified Eagle Medium (DMEM) supplement with 10% cosmic calf serum (CCS). The cells were transfected with a prokaryotic expression vector encoding the wild-type androgen receptor or mutant androgen receptor using Lipofectamine (Invitrogen) following manufacturer's protocol. […] Cells were washed with PBS and harvested in 2% SDS, 10% glycerol, and 10 mM Tris, pH 6.8, and radioactivity determined by scintillation counting.

In data set [3] the target is T1, AR wt. Briefly: Competitive binding assay, [3H]DHT, transfected COS-7 cells, wild-type AR. The following applies: 8 nM [3H]-DHT, read-out: Binding affinity (Ki), AR wt. Further details: expressed in transfected cells; host or cells: COS-7. The method, then: as §3
Data set [4] concerns the target T3, AR T877A (Homo sapiens, UniProt P10275, T878A).
T3 sequence (P10275 1-920 T878A): T1 sequence (P10275 1-920) with T878A
Briefly: Competitive binding assay, [3H]DHT, transfected COS-7 cells, AR T877A. Set-up: expressed in transfected cells; host or cells: COS-7. Particulars: 14 nM [3H]-DHT, read-out: Binding affinity (Ki), AR T877A. The method, then:
as §3

Data set [5] addresses T3, AR T877A. Briefly: Transcription assay (ARE-luciferase reporter) in CV-1 cells, AR T877A. Further details: expressed in transfected cells; host or cells: CV-1. It is filed as cell-based. The method, then:
as §2

The values below come from patent publication US8450374B2, “Pan-antagonists for the androgen receptor and androgen receptor mutants associated with anti-androgen withdrawal” (priority 2009, dated 2013).

SMILES strings stand for the structures. Numbering of substitutions follows the chain as printed.

On to `CC(O)(CS(=O)(=O)c1ccc(F)cc1)C(=O)Nc1ccc(C#N)c(C(F)(F)F)c1` (stereo not shown) [Bicalutamide, bicalutamide], for which the Deaths result in data set [1] was “two”. Further, the “Glandular apoptosis, apoptotic cells” value in the data set with prostate tissues (day 3, TUNEL) was found to be 21.04±4.7 cells per 20× field; with prostate tissues (day 5, TUNEL) it was 50.83±8.2 cells per 20× field.
With `CN(C)CCCOc1ccccc1Cc1ccccc1S(=O)(=O)CC(C)(O)C(=O)Nc1ccc(C#N)c(C(F)(F)F)c1` (stereo not shown) [PAN12], the IC50 stood at 2400 nM against AR wt [2] and 4.1 ± 0.7 µM against AR T877A [5]. For the same compound, the “Antagonist efficacy (RLU value at IC50), AR wt” value on AR wt [2] (in competition with 3 nM DHT, normalized to 10 nM DHT in hAR(wt)) is “(59%)”. The Ki was found to be 16 µM on AR W741C, 5.8 µM on AR wt [3] and 2600 nM at AR T877A [4]. Moreover, on AR T877A [5] (in competition with 10 nM DHT), the “Antagonist efficacy (RLU value at IC50), AR T877A” value is recorded as “(53% ± 5.6%)”.

Broadly, the IC50 is the concentration at which inhibition is half-maximal. Low values mean higher potency, high ones lower potency. Broadly, the Ki is the dissociation constant of the complex between target and ligand, obtained from inhibition or displacement.
